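1) Cells in 96-well plates. 2) Compound, 48 h, 5 concentrations. 3) Linear interpolation between surrounding doses. 4) Unreached endpoint = highest concentration. GI50: concentration for 50% inhibition of growth. TGI is the concentration that stops growth completely.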
Experiments:
Test in all cases: NCI tumour cell line growth inhibition, 48 h
786-0 renal = tested on: 786-0 renal
A498 renal = tested on: A498 renal
A549 NSCLC = tested on: A549 NSCLC
ACHN renal = tested on: ACHN renal
BT-549 breast = tested on: BT-549 breast
CAKI-1 renal = tested on: CAKI-1 renal
CCRF-CEM leukemia = tested on: CCRF-CEM leukemia
COLO 205 colon = tested on: COLO 205 colon
DU-145 prostate = tested on: DU-145 prostate
EKVX NSCLC = tested on: EKVX NSCLC
HCT-116 colon = tested on: HCT-116 colon
HCT-15 colon = tested on: HCT-15 colon
HL-60(TB) leukemia = tested on: HL-60(TB) leukemia
HOP-62 NSCLC = tested on: HOP-62 NSCLC
HOP-92 NSCLC = tested on: HOP-92 NSCLC
HS 578T breast = tested on: HS 578T breast
HT29 colon = tested on: HT29 colon
IGROV1 ovarian = tested on: IGROV1 ovarian
K-562 leukemia = tested on: K-562 leukemia
KM12 colon = tested on: KM12 colon
LOX IMVI melanoma = tested on: LOX IMVI melanoma
M14 melanoma = tested on: M14 melanoma
MALME-3M melanoma = tested on: MALME-3M melanoma
MCF7 breast = tested on: MCF7 breast
MDA-MB-231 breast = tested on: MDA-MB-231 breast
MDA-MB-435 = tested on: MDA-MB-435
MDA-MB-468 breast = tested on: MDA-MB-468 breast
MOLT-4 leukemia = tested on: MOLT-4 leukemia
NCI-H226 lung = tested on: NCI-H226 lung
NCI-H23 lung = tested on: NCI-H23 lung
NCI-H460 lung = tested on: NCI-H460 lung
NCI-H522 lung = tested on: NCI-H522 lung
NCI/ADR-RES ovarian = tested on: NCI/ADR-RES ovarian
OVCAR-3 ovarian = tested on: OVCAR-3 ovarian
OVCAR-4 ovarian = tested on: OVCAR-4 ovarian
OVCAR-5 ovarian = tested on: OVCAR-5 ovarian
OVCAR-8 ovarian = tested on: OVCAR-8 ovarian
RPMI-8226 leukemia = tested on: RPMI-8226 leukemia
RXF 393 renal = tested on: RXF 393 renal
SF-268 CNS = tested on: SF-268 CNS
SF-295 CNS = tested on: SF-295 CNS
SF-539 CNS = tested on: SF-539 CNS
SK-MEL-2 melanoma = tested on: SK-MEL-2 melanoma
SK-MEL-5 melanoma = tested on: SK-MEL-5 melanoma
SK-OV-3 ovarian = tested on: SK-OV-3 ovarian
SN12C renal = tested on: SN12C renal
SNB-19 CNS = tested on: SNB-19 CNS
SNB-75 CNS = tested on: SNB-75 CNS
SR leukemia = tested on: SR leukemia
T-47D breast = tested on: T-47D breast
TK-10 renal = tested on: TK-10 renal
U251 CNS = tested on: U251 CNS
UACC-257 melanoma = tested on: UACC-257 melanoma
UO-31 renal = tested on: UO-31 renal

`COc1ccc2[nH]c(O)c(N=Nc3nc(-c4ccc(Cl)cc4)cs3)c2c1` gave a GI50 (786-0 renal) of 1.6 µM, a TGI (786-0 renal) of 3.09 µM and a GI50 (A498 renal) of 2.22 µM. The TGI (A498 renal) was 4.94 µM, the GI50 (A549 NSCLC) was 2.08 µM and the TGI (A549 NSCLC) was 5.09 µM. It also gave a GI50 (ACHN renal) of 2.9 µM, a TGI (ACHN renal) of 8.71 µM and a GI50 (BT-549 breast) of 3.21 µM. The TGI (BT-549 breast) was 28.3 µM, the GI50 (CAKI-1 renal) was 6.7 µM and the TGI (CAKI-1 renal) was 30.6 µM. The GI50 (CCRF-CEM leukemia) was 4.1 µM, the TGI (CCRF-CEM leukemia) was > 100 µM and the GI50 (COLO 205 colon) was 3.1 µM. The TGI (COLO 205 colon) was > 100 µM, the GI50 (DU-145 prostate) was 3.61 µM and the TGI (DU-145 prostate) was 30.9 µM. The GI50 (EKVX NSCLC) was 2.7 µM, the TGI (EKVX NSCLC) was 21.4 µM and the GI50 (HCT-116 colon) was 1.88 µM. The TGI (HCT-116 colon) was 3.75 µM, the GI50 (HCT-15 colon) was 1.93 µM and the TGI (HCT-15 colon) was 4.14 µM. The GI50 (HL-60(TB) leukemia) was > 100 µM, the TGI (HL-60(TB) leukemia) was > 100 µM and the GI50 (HOP-62 NSCLC) was 2.61 µM. For the same compound, the TGI (HOP-62 NSCLC) was 9.06 µM, the GI50 (HOP-92 NSCLC) was 1.92 µM and the TGI (HOP-92 NSCLC) was 4.88 µM. For the same compound, the GI50 (HS 578T breast) was 4.54 µM, the TGI (HS 578T breast) was 99.7 µM and the GI50 (HT29 colon) was 3.52 µM. It also gave a TGI (HT29 colon) of 50.8 µM, a GI50 (IGROV1 ovarian) of 4.51 µM and a TGI (IGROV1 ovarian) of 60.8 µM. The GI50 (K-562 leukemia) was 3.49 µM, the TGI (K-562 leukemia) was > 100 µM and the GI50 (KM12 colon) was 3.15 µM. For the same compound, the TGI (KM12 colon) was > 100 µM, the GI50 (LOX IMVI melanoma) was 1.9 µM and the TGI (LOX IMVI melanoma) was 4.08 µM. It also gave a GI50 (M14 melanoma) of 1.99 µM, a TGI (M14 melanoma) of 5.29 µM and a GI50 (MALME-3M melanoma) of 1.74 µM. It also gave a TGI (MALME-3M melanoma) of 3.37 µM, a GI50 (MCF7 breast) of 2.53 µM and a TGI (MCF7 breast) of 16.7 µM. It also gave a GI50 (MDA-MB-231 breast) of 2.73 µM, a TGI (MDA-MB-231 breast) of 8.19 µM and a GI50 (MDA-MB-435) of 5.86 µM. The TGI (MDA-MB-435) was > 100 µM, the GI50 (MDA-MB-468 breast) was 1.45 µM and the TGI (MDA-MB-468 breast) was 3.24 µM. For the same compound, the GI50 (MOLT-4 leukemia) was 3.26 µM, the TGI (MOLT-4 leukemia) was > 100 µM and the GI50 (NCI-H226 lung) was 3 µM. The TGI (NCI-H226 lung) was 12.4 µM, the GI50 (NCI-H23 lung) was 2.12 µM and the TGI (NCI-H23 lung) was 5.62 µM. It also gave a GI50 (NCI-H460 lung) of 2.68 µM, a TGI (NCI-H460 lung) of 6.25 µM and a GI50 (NCI-H522 lung) of 2.09 µM. For the same compound, the TGI (NCI-H522 lung) was 6.38 µM, the GI50 (NCI/ADR-RES ovarian) was 1.92 µM and the TGI (NCI/ADR-RES ovarian) was 4.03 µM. For the same compound, the GI50 (OVCAR-3 ovarian) was 1.81 µM, the TGI (OVCAR-3 ovarian) was 3.53 µM and the GI50 (OVCAR-4 ovarian) was 1.83 µM. The TGI (OVCAR-4 ovarian) was 3.54 µM, the GI50 (OVCAR-5 ovarian) was 3.09 µM and the TGI (OVCAR-5 ovarian) was 17 µM. The GI50 (OVCAR-8 ovarian) was 1.86 µM, the TGI (OVCAR-8 ovarian) was 3.71 µM and the GI50 (RPMI-8226 leukemia) was 3.91 µM. The TGI (RPMI-8226 leukemia) was > 100 µM, the GI50 (RXF 393 renal) was 1.67 µM and the TGI (RXF 393 renal) was 3.29 µM. The GI50 (SF-268 CNS) was 4.41 µM, the TGI (SF-268 CNS) was > 100 µM and the GI50 (SF-295 CNS) was 5.01 µM. For the same compound, the TGI (SF-295 CNS) was 20.6 µM, the GI50 (SF-539 CNS) was 1.98 µM and the TGI (SF-539 CNS) was 4.22 µM. It also gave a GI50 (SK-MEL-2 melanoma) of 3.14 µM, a TGI (SK-MEL-2 melanoma) of 34.4 µM and a GI50 (SK-MEL-5 melanoma) of 4.1 µM. It also gave a TGI (SK-MEL-5 melanoma) of 19.4 µM, a GI50 (SK-OV-3 ovarian) of 3.07 µM and a TGI (SK-OV-3 ovarian) of 19.7 µM. The GI50 (SN12C renal) was 1.93 µM, the TGI (SN12C renal) was 4.42 µM and the GI50 (SNB-19 CNS) was 4.56 µM. For the same compound, the TGI (SNB-19 CNS) was 38.3 µM, the GI50 (SNB-75 CNS) was 3.36 µM and the TGI (SNB-75 CNS) was 17.5 µM. The GI50 (SR leukemia) was 4.69 µM, the TGI (SR leukemia) was > 100 µM and the GI50 (T-47D breast) was 1.83 µM. For the same compound, the TGI (T-47D breast) was 5.97 µM, the GI50 (TK-10 renal) was 9.16 µM and the TGI (TK-10 renal) was 32.3 µM. The GI50 (U251 CNS) was 2.06 µM, the TGI (U251 CNS) was 4.18 µM and the GI50 (UACC-257 melanoma) was 6.52 µM. The TGI (UACC-257 melanoma) was > 100 µM, the GI50 (UO-31 renal) was 3.3 µM and the TGI (UO-31 renal) was 16.3 µM.

Reference: PubChem BioAssay (NCI)
